Data: PubChem BioAssay (NCI)
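Dose response: 5 concentrations. Exposure: 48 h. Format: 96-well plates. Endpoint: linear interpolation; highest concentration if not reached. Abbreviation: GI50, concentration required for 50% inhibition of growth. TGI denotes the concentration required for complete inhibition of growth.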

Assays:
Assay in all cases: NCI tumour cell line growth inhibition, 48 h
DU-145 prostate = tested on: DU-145 prostate
HT29 colon = tested on: HT29 colon
COLO 205 colon = tested on: COLO 205 colon
MDA-MB-435 = tested on: MDA-MB-435
SNB-19 CNS = tested on: SNB-19 CNS
U251 CNS = tested on: U251 CNS
786-0 renal = tested on: 786-0 renal
HS 578T breast = tested on: HS 578T breast
SK-MEL-2 melanoma = tested on: SK-MEL-2 melanoma
CAKI-1 renal = tested on: CAKI-1 renal
SR leukemia = tested on: SR leukemia
HOP-92 NSCLC = tested on: HOP-92 NSCLC
SK-MEL-5 melanoma = tested on: SK-MEL-5 melanoma
KM12 colon = tested on: KM12 colon
SNB-75 CNS = tested on: SNB-75 CNS
UO-31 renal = tested on: UO-31 renal
PC-3 prostate = tested on: PC-3 prostate
T-47D breast = tested on: T-47D breast
HCC-2998 colon = tested on: HCC-2998 colon
MDA-MB-231 breast = tested on: MDA-MB-231 breast
SK-MEL-28 melanoma = tested on: SK-MEL-28 melanoma
HL-60(TB) leukemia = tested on: HL-60(TB) leukemia
RPMI-8226 leukemia = tested on: RPMI-8226 leukemia
OVCAR-3 ovarian = tested on: OVCAR-3 ovarian
TK-10 renal = tested on: TK-10 renal
MCF7 breast = tested on: MCF7 breast
M14 melanoma = tested on: M14 melanoma
ACHN renal = tested on: ACHN renal
MALME-3M melanoma = tested on: MALME-3M melanoma
OVCAR-4 ovarian = tested on: OVCAR-4 ovarian
NCI/ADR-RES ovarian = tested on: NCI/ADR-RES ovarian
UACC-62 melanoma = tested on: UACC-62 melanoma
NCI-H226 lung = tested on: NCI-H226 lung
LOX IMVI melanoma = tested on: LOX IMVI melanoma
NCI-H522 lung = tested on: NCI-H522 lung
HOP-62 NSCLC = tested on: HOP-62 NSCLC
SN12C renal = tested on: SN12C renal
OVCAR-5 ovarian = tested on: OVCAR-5 ovarian
SK-OV-3 ovarian = tested on: SK-OV-3 ovarian
SF-268 CNS = tested on: SF-268 CNS
SW-620 colon = tested on: SW-620 colon
BT-549 breast = tested on: BT-549 breast
K-562 leukemia = tested on: K-562 leukemia
HCT-116 colon = tested on: HCT-116 colon
A498 renal = tested on: A498 renal
RXF 393 renal = tested on: RXF 393 renal
SF-539 CNS = tested on: SF-539 CNS
OVCAR-8 ovarian = tested on: OVCAR-8 ovarian
MOLT-4 leukemia = tested on: MOLT-4 leukemia
NCI-H23 lung = tested on: NCI-H23 lung
NCI-H460 lung = tested on: NCI-H460 lung
CCRF-CEM leukemia = tested on: CCRF-CEM leukemia
HCT-15 colon = tested on: HCT-15 colon
IGROV1 ovarian = tested on: IGROV1 ovarian

With `Clc1cc2c(cc1Cl)Oc1cc(Cl)c(Cl)cc1O2` the GI50 (DU-145 prostate) was greater than 625 nM, the TGI (DU-145 prostate) was greater than 625 nM and the GI50 (HT29 colon) was greater than 625 nM. The TGI (HT29 colon) was greater than 625 nM, the GI50 (COLO 205 colon) was greater than 625 nM and the TGI (COLO 205 colon) was greater than 625 nM. The GI50 (MDA-MB-435) was greater than 625 nM, the TGI (MDA-MB-435) was greater than 625 nM and the GI50 (SNB-19 CNS) was greater than 625 nM. It also gave a TGI (SNB-19 CNS) greater than 625 nM, a GI50 (U251 CNS) greater than 625 nM and a TGI (U251 CNS) greater than 625 nM. The GI50 (786-0 renal) was greater than 625 nM, the TGI (786-0 renal) was greater than 625 nM and the GI50 (HS 578T breast) was greater than 625 nM. For the same molecule, the TGI (HS 578T breast) was greater than 625 nM, the GI50 (SK-MEL-2 melanoma) was greater than 625 nM and the TGI (SK-MEL-2 melanoma) was greater than 625 nM. It also gave a GI50 (CAKI-1 renal) greater than 625 nM, a TGI (CAKI-1 renal) greater than 625 nM and a GI50 (SR leukemia) greater than 625 nM. For the same molecule, the TGI (SR leukemia) was greater than 625 nM, the GI50 (HOP-92 NSCLC) was greater than 625 nM and the TGI (HOP-92 NSCLC) was greater than 625 nM. For the same molecule, the GI50 (SK-MEL-5 melanoma) was greater than 625 nM, the TGI (SK-MEL-5 melanoma) was greater than 625 nM and the GI50 (KM12 colon) was greater than 625 nM. It also gave a TGI (KM12 colon) greater than 625 nM, a GI50 (SNB-75 CNS) of 304 nM and a TGI (SNB-75 CNS) greater than 625 nM. It also gave a GI50 (UO-31 renal) of 209 nM, a TGI (UO-31 renal) greater than 625 nM and a GI50 (PC-3 prostate) greater than 625 nM. For the same molecule, the TGI (PC-3 prostate) was greater than 625 nM, the GI50 (T-47D breast) was greater than 625 nM and the TGI (T-47D breast) was greater than 625 nM. It also gave a GI50 (HCC-2998 colon) greater than 625 nM, a TGI (HCC-2998 colon) greater than 625 nM and a GI50 (MDA-MB-231 breast) greater than 625 nM. For the same molecule, the TGI (MDA-MB-231 breast) was greater than 625 nM, the GI50 (SK-MEL-28 melanoma) was greater than 625 nM and the TGI (SK-MEL-28 melanoma) was greater than 625 nM. The GI50 (HL-60(TB) leukemia) was greater than 625 nM, the TGI (HL-60(TB) leukemia) was greater than 625 nM and the GI50 (RPMI-8226 leukemia) was greater than 625 nM. The TGI (RPMI-8226 leukemia) was greater than 625 nM, the GI50 (OVCAR-3 ovarian) was greater than 625 nM and the TGI (OVCAR-3 ovarian) was greater than 625 nM. The GI50 (TK-10 renal) was greater than 625 nM, the TGI (TK-10 renal) was greater than 625 nM and the GI50 (MCF7 breast) was greater than 625 nM. It also gave a TGI (MCF7 breast) greater than 625 nM, a GI50 (M14 melanoma) greater than 625 nM and a TGI (M14 melanoma) greater than 625 nM. The GI50 (ACHN renal) was greater than 625 nM, the TGI (ACHN renal) was greater than 625 nM and the GI50 (MALME-3M melanoma) was greater than 625 nM. It also gave a TGI (MALME-3M melanoma) greater than 625 nM, a GI50 (OVCAR-4 ovarian) greater than 625 nM and a TGI (OVCAR-4 ovarian) greater than 625 nM. The GI50 (NCI/ADR-RES ovarian) was greater than 625 nM, the TGI (NCI/ADR-RES ovarian) was greater than 625 nM and the GI50 (UACC-62 melanoma) was greater than 625 nM. For the same molecule, the TGI (UACC-62 melanoma) was greater than 625 nM, the GI50 (NCI-H226 lung) was greater than 625 nM and the TGI (NCI-H226 lung) was greater than 625 nM. The GI50 (LOX IMVI melanoma) was greater than 625 nM, the TGI (LOX IMVI melanoma) was greater than 625 nM and the GI50 (NCI-H522 lung) was greater than 625 nM. It also gave a TGI (NCI-H522 lung) greater than 625 nM, a GI50 (HOP-62 NSCLC) greater than 625 nM and a TGI (HOP-62 NSCLC) greater than 625 nM. For the same molecule, the GI50 (SN12C renal) was greater than 625 nM, the TGI (SN12C renal) was greater than 625 nM and the GI50 (OVCAR-5 ovarian) was greater than 625 nM. For the same molecule, the TGI (OVCAR-5 ovarian) was greater than 625 nM, the GI50 (SK-OV-3 ovarian) was greater than 625 nM and the TGI (SK-OV-3 ovarian) was greater than 625 nM. For the same molecule, the GI50 (SF-268 CNS) was greater than 625 nM, the TGI (SF-268 CNS) was greater than 625 nM and the GI50 (SW-620 colon) was greater than 625 nM. It also gave a TGI (SW-620 colon) greater than 625 nM, a GI50 (BT-549 breast) greater than 625 nM and a TGI (BT-549 breast) greater than 625 nM. For the same molecule, the GI50 (K-562 leukemia) was greater than 625 nM, the TGI (K-562 leukemia) was greater than 625 nM and the GI50 (HCT-116 colon) was greater than 625 nM. For the same molecule, the TGI (HCT-116 colon) was greater than 625 nM, the GI50 (A498 renal) was greater than 625 nM and the TGI (A498 renal) was greater than 625 nM. It also gave a GI50 (RXF 393 renal) greater than 625 nM, a TGI (RXF 393 renal) greater than 625 nM and a GI50 (SF-539 CNS) greater than 625 nM. It also gave a TGI (SF-539 CNS) greater than 625 nM, a GI50 (OVCAR-8 ovarian) greater than 625 nM and a TGI (OVCAR-8 ovarian) greater than 625 nM. For the same molecule, the GI50 (MOLT-4 leukemia) was greater than 625 nM, the TGI (MOLT-4 leukemia) was greater than 625 nM and the GI50 (NCI-H23 lung) was greater than 625 nM. For the same molecule, the TGI (NCI-H23 lung) was greater than 625 nM, the GI50 (NCI-H460 lung) was greater than 625 nM and the TGI (NCI-H460 lung) was greater than 625 nM. It also gave a GI50 (CCRF-CEM leukemia) greater than 625 nM, a TGI (CCRF-CEM leukemia) greater than 625 nM and a GI50 (HCT-15 colon) greater than 625 nM. For the same molecule, the TGI (HCT-15 colon) was greater than 625 nM, the GI50 (IGROV1 ovarian) was greater than 625 nM and the TGI (IGROV1 ovarian) was greater than 625 nM.
